This note sets out measurements from US12364670B2, “Cannabidiol-type cannabinoid compound” (JAZZ PHARMACEUTICALS RESEARCH UK LIMITED, priority 2019, dated 2025).

SMILES strings stand for the structures.

For data set [1], the system named is electroshock-induced tonic hind limb extensor seizure (MEST) in the mouse. The data set can be described thus: Maximal electroshock seizure threshold (MEST) test in the mouse, Example 2. Conditions: for CC50 +/- SEM: vehicle CC50 21.0. The protocol:
The efficacy of CBD-C6 was tested in a mouse model of seizure, the maximal electroshock seizure threshold (MEST) test.
The maximal electroshock seizure threshold (MEST) test is widely utilized preclinically to evaluate pro- and anti-convulsant properties of molecules (Loscher et al., 1991).
In the MEST test the ability of a drug to alter the seizure threshold current required to induce hind limb tonic extensor convulsions is measured according to an “up and down” method of shock titration (Kimball et al., 1957). An increase in seizure threshold is indicative of anti-convulsant effect.
Naïve mice were acclimatised to the procedure room in their home cages, with food and water available ad libitum.
Animals were dosed i.p. according to dose group.
The vehicle (10 ml/kg i.p. 60 min pre-treatment time) was 1:1:18 vehicle 5% ethanol, 5% kolliphor EL, 90% saline.
The test compound, CBD-C6 was administered at doses of 10, 30 and 100 mg/kg given at 10 ml/kg i.p. 180 min pre-treatment time.
Mice were individually assessed for the production of a tonic hind limb extensor seizure using a Hugo Sachs Electronik stimulator, which delivered an adjustable constant current (1-300 mA) of 0.1 s duration via corneal electrodes.
The stimulus intensity was varied by an ‘up and down’ method of shock titration.
This procedure continued for all mice within the treatment group. Data generated from treatment group of n=12 was used to calculate the CC50±s.e.m. values according to the method of Kimball et al. (1957).
Induction of seizure is measured as an all-or-nothing effect scored as either present (+) or absent (0) for each animal.
Data was analysed by comparing treated groups with the appropriate vehicle control using Fisher's Exact Probability tests.

Data set [2] has as its system electroshock-induced generalised seizure threshold (MEST) in the mouse. The data set can be described thus: Maximal electroshock seizure threshold (MEST) test in the mouse, Example 3. Conditions: for CC50 ± SEM: vehicle CC50 24.3. The protocol:
The efficacy of CBD-C6 was tested in a mouse model of generalised seizure, the maximal electroshock seizure threshold (MEST) test as described in Example 2.
Naïve mice were acclimatised to the procedure room in their home cages for up to 7 days, with food and water available ad libitum.
All animals were weighed at the beginning of the study and randomly assigned to treatment groups based on a mean distribution of body weight across groups.
The first animal within a treatment group was given a shock at the expected or estimated CC50 current. For subsequent animals, the current was lowered or raised depending on the convulsions outcome from the preceding animal.
Data generated from each treatment group were used to calculate the CC50±SEM values for the treatment group.
Vehicle: (5% ethanol, 5% solutol, 90% Saline) was prepared as follows: 1 mL of ethanol, 1 mL of solutol were warmed to 60° C., in 18 mL of saline (1:1:18).
The test compound, CBD-C6 was prepared according to the method described in Example 1. CBD-C6 was administered at 10, 30 and 100 mg/kg (i.p.) in a 1:1:18 ethanol:solutol:0.9% saline formulation.
CBD-C6 effects were also calculated as percentage change in CC50 from the vehicle control group. Significant difference between drug-treated animals and controls were assessed according to Litchfield and Wilcoxon (1949).

Setting [3] is: 10 mg/kg i.p., 180 min pre-treatment.
Where [4] appears, read: 30 mg/kg i.p., 180 min pre-treatment.
Setting [5] is: 100 mg/kg i.p., 180 min pre-treatment.
Where [6] appears, read: 10 mg/kg i.p., 60 min pre-treatment.
Setting [7] is: 30 mg/kg i.p., 60 min pre-treatment.
[8] abbreviates: 100 mg/kg i.p., 120 min pre-treatment.
Where [9] appears, read: 2.5 mg/kg i.p., 30 min pre-treatment.

For `C=C(C)[C@@H]1CCC(C)=C[C@H]1c1c(O)cc(CCCCCC)cc1O` [CBD-C6, Cannabidiol-C6], the “% change from vehicle (CC50)” value in data set [1] (setting [3]) is on record as 11%; in data set [1] (setting [4]), 63%; in data set [1] (setting [5]), 376%; in data set [2] (setting [6]), 27%; in data set [2] (setting [7]), 29%; in data set [2] (setting [8]) it was 239%. Also, the figures for the “CC50 +/- SEM” value in data set [1] (setting [3]), in data set [1] (setting [4]) and in data set [1] (setting [5]) were 23.4 mA, 34.3 mA and greater than 100 mA, respectively. Besides, the “CC50 ± SEM” value in data set [2] (setting [6]) is recorded as 30.8 ± 1.9 mA; in data set [2] (setting [7]), 31.5 ± 1.0 mA; in data set [2] (setting [8]), 82.5 ± 0.7 mA. Moreover, the “effect on MEST (in words)” value in data set [2] (10, 30 and 100 mg/kg i.p., compared to vehicle) is “dose-related increase in MEST”.

As for `CN1C(=O)CN=C(c2ccccc2)c2cc(Cl)ccc21` [Diazepam, diazepam, reference compound], the results for the “% change from vehicle (CC50)” value in data set [1] (setting [9]) and in data set [2] (setting [9]) were 40% and 255%, respectively.

Turning to `CCCC(CCC)C(=O)[O-].[Na+]` [Sodium Valproate, sodium valproate, reference compound], the “% change from vehicle (CC50)” value in data set [2] (250 mg/kg i.p., 30 min pre-treatment) is 1057%.
